Where two headings read alike, the source gives them in different places.
What was measured:
[1] = tested on: panel of 55 breast cancer cell lines; assay: Cell growth inhibition assay (Cell Titer Glo, 72 h, 9 doses; GI50, TGI, LC50); assay type: cell-based, human; conditions: Homo sapiens, read-out: GI50 (converted)
[2] = tested on: luminal, basal, claudin-low and ERBB2AMP breast cancer cell lines; assay: Associations of clinically relevant subtypes and response (non-parametric ANOVA or t-test on GI50 ranks); assay type: cell-based, human; conditions: Table 6; most sensitive subtype, FDR p<0.20
Method in brief: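 GI50 values were compared between cell-line subtype groups by non-parametric ANOVA or t-test on ranks. P-values from three test sets were combined and FDR-corrected. Significant three-group effects were followed by post-hoc comparison of each group against all others, and FDR p<0.20 counted as significant.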

[3] = tested on: breast cancer cell lines with aberrant vs normal copy number; assay: Association of recurrent copy number changes and response (t-test on GI50); assay type: cell-based, human; conditions: FDR p<0.2
Method in brief: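 A t-test compared GI50 between cell lines with high amplification at 8q24 (MYC), 11q13 (CCND1) or 20q13 (STK15/AURKA) and lines with low or no amplification, grouped together. Lines whose GI50 equalled the maximum concentration tested were excluded. Compounds with any group under five samples were also excluded.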

CDK4 = CDK4 (Homo sapiens, UniProt P11802); conditions: cited from earlier work
Sequence of CDK4 (P11802 whole entry, species assumed): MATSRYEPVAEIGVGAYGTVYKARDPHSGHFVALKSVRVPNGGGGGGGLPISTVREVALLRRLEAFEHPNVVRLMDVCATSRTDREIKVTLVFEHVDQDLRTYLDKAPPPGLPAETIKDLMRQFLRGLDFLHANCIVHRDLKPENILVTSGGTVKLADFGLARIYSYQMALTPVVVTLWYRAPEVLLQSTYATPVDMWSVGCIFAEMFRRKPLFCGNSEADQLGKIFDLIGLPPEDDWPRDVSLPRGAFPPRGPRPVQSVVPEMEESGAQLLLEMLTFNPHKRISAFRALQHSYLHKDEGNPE
Sequence of CDK4 (P24385 whole entry partner, species assumed): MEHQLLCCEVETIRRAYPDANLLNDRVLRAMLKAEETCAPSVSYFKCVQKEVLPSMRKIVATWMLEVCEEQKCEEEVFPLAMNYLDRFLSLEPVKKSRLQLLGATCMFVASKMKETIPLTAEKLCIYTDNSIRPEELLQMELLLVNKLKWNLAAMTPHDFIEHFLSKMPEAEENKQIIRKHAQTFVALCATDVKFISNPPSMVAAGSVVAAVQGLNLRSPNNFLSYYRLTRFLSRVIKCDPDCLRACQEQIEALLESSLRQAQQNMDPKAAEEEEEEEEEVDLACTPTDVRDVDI

SMILES: O=C1c2ccccc2-[n+]2ccc3c([nH]c4ccccc43)c21 [Fascaplysin]
- GI50 ([1]; 600MPE cell line, censored GI50 values): 0.288 µM
- GI50 ([1]; AU565, AU565 cell line, censored GI50 values): 0.12 µM
- GI50 ([1]; AU565, cell line AU565): 0.12 µM
- GI50 ([1]; BT-20, BT20 cell line, censored GI50 values): 0.309 µM
- GI50 ([1]; BT-20, cell line BT20): 0.309 µM
- GI50 ([1]; BT-474, BT474 cell line, censored GI50 values): 0.191 µM
- GI50 ([1]; BT-474, cell line BT474): 0.191 µM
- GI50 ([1]; BT-483, BT483 cell line, censored GI50 values): 0.0661 µM
- GI50 ([1]; BT-483, cell line BT483): 0.0661 µM
- GI50 ([1]; BT-549, BT549 cell line, censored GI50 values): 0.513 µM
- GI50 ([1]; BT-549, cell line BT549): 0.513 µM
- GI50 ([1]; CAMA-1, CAMA1 cell line, censored GI50 values): 0.245 µM
- GI50 ([1]; CAMA-1, cell line CAMA1): 0.245 µM
- GI50 ([1]; HCC38, HCC38 cell line, censored GI50 values): 0.275 µM
- GI50 ([1]; HCC38, cell line HCC38): 0.275 µM
- GI50 ([1]; HCC70, HCC70 cell line, censored GI50 values): 0.126 µM
- GI50 ([1]; HCC70, cell line HCC70): 0.126 µM
- GI50 ([1]; HCC202, HCC202 cell line, censored GI50 values): 0.0427 µM
- GI50 ([1]; HCC202, cell line HCC202): 0.0427 µM
- GI50 ([1]; HCC1143, HCC1143 cell line, censored GI50 values): 0.275 µM
- GI50 ([1]; HCC1143, cell line HCC1143): 0.275 µM
- GI50 ([1]; HCC1187, HCC1187 cell line, censored GI50 values): 0.0155 µM
- GI50 ([1]; HCC1187, cell line HCC1187): 0.0155 µM
- GI50 ([1]; HCC1395, HCC1395 cell line, censored GI50 values): 0.324 µM
- GI50 ([1]; HCC1395, cell line HCC1395): 0.324 µM
- GI50 ([1]; HCC1419, HCC1419 cell line, censored GI50 values): 0.263 µM
- GI50 ([1]; HCC1419, cell line HCC1419): 0.263 µM
- GI50 ([1]; HCC1428, HCC1428 cell line, censored GI50 values): 0.0372 µM
- GI50 ([1]; HCC1428, cell line HCC1428): 0.0372 µM
- GI50 ([1]; HCC1500, HCC1500 cell line, censored GI50 values): 0.224 µM
- GI50 ([1]; HCC1500, cell line HCC1500): 0.224 µM
- GI50 ([1]; HCC1806, HCC1806 cell line, censored GI50 values): 0.257 µM
- GI50 ([1]; HCC1806, cell line HCC1806): 0.257 µM
- GI50 ([1]; HCC1937, HCC1937 cell line, censored GI50 values): 0.389 µM
- GI50 ([1]; HCC1937, cell line HCC1937): 0.389 µM
- GI50 ([1]; HCC1954, HCC1954 cell line, censored GI50 values): 0.269 µM
- GI50 ([1]; HCC1954, cell line HCC1954): 0.269 µM
- GI50 ([1]; HCC2185 cell line, censored GI50 values): 0.126 µM
- GI50 ([1]; HCC3153 cell line, censored GI50 values): 0.347 µM
- GI50 ([1]; LY2 cell line, censored GI50 values): 0.00794 µM
- GI50 ([1]; MCF7, MCF7 cell line, censored GI50 values): 0.191 µM
- GI50 ([1]; MCF7, cell line MCF7): 0.191 µM
- GI50 ([1]; MDA-MB-134-VI, MDAMB134VI cell line, censored GI50 values): 0.224 µM
- GI50 ([1]; MDA-MB-157, MDAMB157 cell line, censored GI50 values): 0.17 µM
- GI50 ([1]; MDA-MB-157, cell line MDAMB157): 0.17 µM
- GI50 ([1]; MDA-MB-175-VII, MDAMB175VII cell line, censored GI50 values): 0.191 µM
- GI50 ([1]; MDA-MB-231, MDAMB231 cell line, censored GI50 values): 0.251 µM
- GI50 ([1]; MDA-MB-231, cell line MDAMB231): 0.251 µM
- GI50 ([1]; MDA-MB-361, MDAMB361 cell line, censored GI50 values): 0.0813 µM
- GI50 ([1]; MDA-MB-361, cell line MDAMB361): 0.0813 µM
- GI50 ([1]; MDA-MB-415, MDAMB415 cell line, censored GI50 values): 0.0603 µM
- GI50 ([1]; MDA-MB-415, cell line MDAMB415): 0.0603 µM
- GI50 ([1]; MDA-MB-436, MDAMB436 cell line, censored GI50 values): 0.417 µM
- GI50 ([1]; MDA-MB-436, cell line MDAMB436): 0.417 µM
- GI50 ([1]; MDA-MB-453, MDAMB453 cell line, censored GI50 values): 0.0871 µM
- GI50 ([1]; MDA-MB-453, cell line MDAMB453): 0.0871 µM
- GI50 ([1]; MDA-MB-468, MDAMB468 cell line, censored GI50 values): 0.0776 µM
- GI50 ([1]; MDA-MB-468, cell line MDAMB468): 0.0776 µM
- GI50 ([1]; SK-BR-3, SKBR3 cell line, censored GI50 values): 0.224 µM
- GI50 ([1]; SK-BR-3, cell line SKBR3): 0.224 µM
- GI50 ([1]; SUM52PE, SUM52PE cell line, censored GI50 values): 0.182 µM
- GI50 ([1]; SUM52PE, cell line SUM52PE): 0.182 µM
- GI50 ([1]; SUM149PT, SUM149PT cell line, censored GI50 values): 0.398 µM
- GI50 ([1]; SUM149PT, cell line SUM149PT): 0.398 µM
- GI50 ([1]; SUM185PE, SUM185PE cell line, censored GI50 values): 0.055 µM
- GI50 ([1]; SUM185PE, cell line SUM185PE): 0.055 µM
- GI50 ([1]; SUM225CWN, SUM225CWN cell line, censored GI50 values): 0.0676 µM
- GI50 ([1]; SUM225CWN, cell line SUM225CWN): 0.0676 µM
- GI50 ([1]; SUM1315MO2, SUM1315MO2 cell line, censored GI50 values): 0.417 µM
- GI50 ([1]; SUM-159-PT, SUM159PT cell line, censored GI50 values): 0.427 µM
- GI50 ([1]; SUM-159-PT, cell line SUM159PT): 0.427 µM
- GI50 ([1]; T47D, T47D cell line, censored GI50 values): 0.457 µM
- GI50 ([1]; T47D, cell line T47D): 0.457 µM
- GI50 ([1]; UACC-893, UACC893 cell line, censored GI50 values): 0.186 µM
- GI50 ([1]; UACC-893, cell line UACC893): 0.186 µM
- GI50 ([1]; ZR-75-1, ZR751 cell line, censored GI50 values): 0.355 µM
- GI50 ([1]; ZR-75-1, cell line ZR751): 0.355 µM
- GI50 ([1]; ZR-75B, ZR75B cell line, censored GI50 values): 0.407 µM
- GI50 ([1]; ZR-75B, cell line ZR75B): 0.407 µM
- GI50 ([1]; cell line 600MPE): 0.288 µM
- GI50 ([1]; cell line HCC2185): 0.126 µM
- GI50 ([1]; cell line HCC3153): 0.347 µM
- GI50 ([1]; cell line LY2): 0.00794 µM
- GI50 ([1]; cell line MDAMB134V): 0.224 µM
- GI50 ([1]; cell line MDAMB175V): 0.191 µM
- GI50 ([1]; cell line SUM1315MO): 0.417 µM
- Subtype specificity [2]: Luminal
- association of response with homozygous deletion at 9p21 (CDKN2A) [3]: associated with response
- inhibition of CDK4 (CDK4): inhibited CDK4

From patent publication US10770169B2, “Method of providing a treatment to a subject based on a dynamic pathway map” (THE REGENTS OF THE UNIVERSITY OF CALIFORNIA, priority 2010, dated 2020)
